The solubility is the concentration that dissolves in the medium under given conditions.

The data set is described as follows: Turbidimetric aqueous solubility. The class given is physicochemical. The conditions noted are these: 37 °C, pH 7.4, aqueous buffer, kinetic from dmso stock, Turbidity aqueous solubility, Estimated precipitation range. How it is done: Each test compound concentration was then further diluted 1 in 100 in buffer (0.01 M phosphate buffered saline pH 7.4) so that the final DMSO concentration was 1% and the final test compound concentrations were 1, 3, 10, 30 and 100 μM. The experiment was performed at 37° C. and each concentration was incubated in 7 replicate wells. The plates were incubated for 2 hr at 37° C. before the absorbance was measured at 620 nm.

Structures are written as SMILES. ≈ marks a conversion by molar mass, not a printed value.

`COC(=O)C1=C(C)NC(C)=C(C(=O)OCCN(C)Cc2ccccc2)C1c1cccc([N+](=O)[O-])c1` (stereo not drawn) [Nicardipine, reference compound]: the solubility at 2 h is 11.5 µM (≈ 5.51 µg/mL) (Calculated mid-range), 3 µM (≈ 1.44 µg/mL) (Lower bond) and 20 µM (≈ 9.59 µg/mL) (Upper bond).
